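Growth conditions: 96-well plates. Treatment: test compound, 48 hours, 5 concentrations. Analysis: linear interpolation between bracketing concentrations; unreached endpoints set to highest concentration. TGI denotes the concentration required for complete inhibition of growth.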
Columns and labels:
Test in all cases: NCI anticancer screen, dose series, 48 h
A498 renal = tested on: A498 renal
RXF 393 renal = tested on: RXF 393 renal
UO-31 renal = tested on: UO-31 renal
NCI-H23 lung = tested on: NCI-H23 lung
SK-MEL-5 melanoma = tested on: SK-MEL-5 melanoma
SF-539 CNS = tested on: SF-539 CNS
SK-MEL-2 melanoma = tested on: SK-MEL-2 melanoma
COLO 205 colon = tested on: COLO 205 colon
M14 melanoma = tested on: M14 melanoma
OVCAR-5 ovarian = tested on: OVCAR-5 ovarian
LOX IMVI melanoma = tested on: LOX IMVI melanoma
UACC-257 melanoma = tested on: UACC-257 melanoma
HS 578T breast = tested on: HS 578T breast
MCF7 breast = tested on: MCF7 breast
DU-145 prostate = tested on: DU-145 prostate

`C=CCC1C(=O)C(C(=O)OC)N2CCc3c([nH]c4ccccc34)C12` (stereo not given) gave a TGI (A498 renal) of over 100 µM, a TGI (RXF 393 renal) of over 100 µM and a TGI (UO-31 renal) of over 100 µM. The TGI (NCI-H23 lung) was over 100 µM, the TGI (SK-MEL-5 melanoma) was over 100 µM and the TGI (SF-539 CNS) was over 100 µM. For the same compound, the TGI (SK-MEL-2 melanoma) was over 100 µM, the TGI (COLO 205 colon) was over 100 µM and the TGI (M14 melanoma) was over 100 µM. For the same compound, the TGI (OVCAR-5 ovarian) was over 100 µM.

`COC(=O)/C=C/c1cnc2c(c1)oc(=O)n2CCc1ccccn1` was tested, and the TGI (LOX IMVI melanoma) was over 100 µM, the TGI (A498 renal) was over 100 µM and the TGI (UO-31 renal) was over 100 µM. For the same compound, the TGI (NCI-H23 lung) was over 100 µM, the TGI (SK-MEL-5 melanoma) was over 100 µM and the TGI (SF-539 CNS) was over 100 µM. It also gave a TGI (SK-MEL-2 melanoma) of over 100 µM, a TGI (UACC-257 melanoma) of over 100 µM and a TGI (HS 578T breast) of over 100 µM. It also gave a TGI (COLO 205 colon) of over 100 µM, a TGI (MCF7 breast) of over 100 µM and a TGI (M14 melanoma) of over 100 µM. It also gave a TGI (OVCAR-5 ovarian) of over 100 µM.

For `CCCCCCCC(=O)OC[C@@H](C[As](=O)(O)O)OC(=O)CCCCCCC`, the TGI (A498 renal) was 24 µM, the TGI (RXF 393 renal) was 19.3 µM and the TGI (UO-31 renal) was 17.1 µM. For the same compound, the TGI (NCI-H23 lung) was 26.4 µM, the TGI (SK-MEL-5 melanoma) was 26.9 µM and the TGI (SF-539 CNS) was 22.3 µM. For the same compound, the TGI (UACC-257 melanoma) was 35.6 µM, the TGI (COLO 205 colon) was 34.3 µM and the TGI (M14 melanoma) was 29.6 µM.

`Oc1[nH]c2ccccc2c1N=NC(=S)N1CCCCC1` showed a TGI (LOX IMVI melanoma) of 3.2 µM, a TGI (A498 renal) of 1.99 µM and a TGI (DU-145 prostate) of 10.9 µM. For the same compound, the TGI (RXF 393 renal) was 2.65 µM, the TGI (UO-31 renal) was 3.23 µM and the TGI (NCI-H23 lung) was 9.14 µM. For the same compound, the TGI (SK-MEL-5 melanoma) was 1.03 µM, the TGI (SF-539 CNS) was 1.49 µM and the TGI (SK-MEL-2 melanoma) was 6.12 µM. For the same compound, the TGI (COLO 205 colon) was 11.2 µM, the TGI (MCF7 breast) was 6.26 µM and the TGI (M14 melanoma) was 2.23 µM. It also gave a TGI (OVCAR-5 ovarian) of 21.1 µM.

For `CN1C(OCc2ccccc2)c2c(ccc3c2OCO3)C2C=Cc3cc4c(cc3C21)OCO4` (stereo not given), the TGI (LOX IMVI melanoma) was 0.337 µM, the TGI (RXF 393 renal) was 2.31 µM and the TGI (UO-31 renal) was 2.59 µM. For the same compound, the TGI (NCI-H23 lung) was 2.68 µM, the TGI (SK-MEL-5 melanoma) was 2.58 µM and the TGI (SF-539 CNS) was 2.99 µM. For the same compound, the TGI (SK-MEL-2 melanoma) was 2.92 µM, the TGI (UACC-257 melanoma) was 2.68 µM and the TGI (COLO 205 colon) was 2.2 µM. For the same compound, the TGI (M14 melanoma) was 2.1 µM and the TGI (OVCAR-5 ovarian) was 2.86 µM.

Compound `CCOC(=O)[C@@H]1C[C@H]1c1ccc(O)c(O)c1` has a TGI (DU-145 prostate) of over 100 µM, a TGI (RXF 393 renal) of 87.4 µM and a TGI (UO-31 renal) of over 100 µM. For the same compound, the TGI (NCI-H23 lung) was over 100 µM, the TGI (SK-MEL-5 melanoma) was 31.3 µM and the TGI (SF-539 CNS) was over 100 µM. It also gave a TGI (SK-MEL-2 melanoma) of 61.5 µM, a TGI (UACC-257 melanoma) of over 100 µM and a TGI (HS 578T breast) of over 100 µM. It also gave a TGI (COLO 205 colon) of over 100 µM, a TGI (MCF7 breast) of over 100 µM and a TGI (M14 melanoma) of 73.6 µM. The TGI (OVCAR-5 ovarian) was over 100 µM.

`COC(=O)CCC1(C)C2CCC1(C)/C(=N/O)C2` (stereo not given) showed a TGI (DU-145 prostate) of over 100 µM, a TGI (RXF 393 renal) of over 100 µM and a TGI (UO-31 renal) of over 100 µM. The TGI (NCI-H23 lung) was over 100 µM, the TGI (SK-MEL-5 melanoma) was over 100 µM and the TGI (SK-MEL-2 melanoma) was over 100 µM. The TGI (UACC-257 melanoma) was over 100 µM, the TGI (HS 578T breast) was over 100 µM and the TGI (COLO 205 colon) was over 100 µM. For the same compound, the TGI (MCF7 breast) was over 100 µM, the TGI (M14 melanoma) was over 100 µM and the TGI (OVCAR-5 ovarian) was over 100 µM.

In the case of `COC(=O)Nc1nc2ccc(Oc3ccc4nc(NC(=O)OC)[nH]c4c3)cc2[nH]1`, the TGI (LOX IMVI melanoma) was over 100 µM, the TGI (A498 renal) was over 51.4 µM and the TGI (DU-145 prostate) was 6.09 µM. For the same compound, the TGI (RXF 393 renal) was over 22.8 µM, the TGI (UO-31 renal) was over 100 µM and the TGI (NCI-H23 lung) was over 100 µM. The TGI (SK-MEL-5 melanoma) was 4.19 µM, the TGI (SF-539 CNS) was 1.69 µM and the TGI (SK-MEL-2 melanoma) was over 100 µM. For the same compound, the TGI (UACC-257 melanoma) was over 100 µM, the TGI (COLO 205 colon) was 7.59 µM and the TGI (MCF7 breast) was over 100 µM. It also gave a TGI (M14 melanoma) of over 29.6 µM and a TGI (OVCAR-5 ovarian) of over 100 µM.

Compound `O=C(O)c1c[nH]c2c(=O)[nH]cnc12` has a TGI (LOX IMVI melanoma) of over 100 µM, a TGI (RXF 393 renal) of over 100 µM and a TGI (UO-31 renal) of over 100 µM. For the same compound, the TGI (NCI-H23 lung) was over 100 µM, the TGI (SK-MEL-5 melanoma) was over 100 µM and the TGI (SK-MEL-2 melanoma) was over 100 µM. For the same compound, the TGI (UACC-257 melanoma) was over 100 µM, the TGI (COLO 205 colon) was over 100 µM and the TGI (M14 melanoma) was over 100 µM. The TGI (OVCAR-5 ovarian) was over 100 µM.
